Test results reported in US8420777B2, “Compounds that inhibit Hsp90 protein-protein interactions with IAP proteins” (University of Massachusetts, priority 2004, dated 2013).
Square brackets hold non-standard residues; d marks the D form. Ends that are not written are not given here.

Key:
[1] = system: normal lung fibroblast LU18 cells; experiment: Trypan blue exclusion in normal cells; type: cell-based; settings: 150 μM, 24 hours
[2] = system: PC3 tumors; experiment: Peptide accumulation within the tumor mass, fluorescence microscopy; type: in vivo, SCID/beige mice; settings: intraperitoneally, one hour after administration
Method: To determine whether the survivin peptidomimetic accumulates intracellularly in vivo, animals carrying flank PC3 tumors were injected intraperitoneally with saline, or the cell-permeable retro-inverso K79-L87 survivin peptide P3. One hour after administration, the animals were sacrificed, and the tumors were carefully excised and analyzed for peptide accumulation within the tumor mass by fluorescence microscopy.

[3] = system: HeLa, MDA-MB231, MCF-7, PANC-1 tumor cell lines; experiment: MTT cell viability with retro-inverso peptides; type: cell-based; settings: increasing concentrations, 24 hours
Method: For determination of apoptosis by hypodiploid DNA content, various tumor cell lines were incubated with increasing concentrations of the cell permeable control scrambled (SEQ ID NO:25) or Survivin peptide (SEQ ID NO:19), harvested after 24 hours (floaters plus attached cells) fixed in 70% ethanol, and stained with 10 μg/ml propidium iodide plus 100 μg/ml RNAse A and 0.05% Triton™ X-100 in PBS, pH 7.4. Cultures were analyzed for DNA content by flow cytometry. For colorimetric quantification of cell viability, an MTT assay was used. […] Decrease in cell viability was analyzed for loss of colorimetric absorption at OD405.
To increase the stability in vivo of the cell permeable Survivin K79-L87 sequence, we synthesized peptidomimetic variants in which the cell penetrating Antennapedia sequence and the Survivin active sequence K79-L87 were synthesized using D-amino acid ([…]) and in the reverse order (inverso sequence). […] To test the ability of the retro-inverso cell permeable sequences to induce apoptosis in cancer cells, a panel of tumor cell lines were analyzed by the cell viability MTT assay after incubation with the indicated increasing concentrations of the P3 (Survivin) or P4 (control) retro-inverso cell permeable peptides.

[4] = system: HCT116, HeLa, MCF-7, PANC-1, PC3 tumor cells; experiment: Trypan blue exclusion in tumor cell lines; type: cell-based; settings: 150 μM, 24 hours
Method: To study the specificity of the retro-inverso P3 and P4 sequences described in Example 17, we incubated a variety of tumor cell lines with the cell permeable retro-inverso P3 and P4 peptides (150 μM), and stained the cultures after 24 hours by trypan blue (Sigma) exclusion. Cells that fail to exclude the blue dye were cells that lost cell viability and plasma membrane integrity.

[5] = system: Hsp70; experiment: Affinity chromatography of Raji cell extracts on Survivin peptide column; type: binding; settings: eluate by Western blotting
From the text: (§1) A Survivin Ile^74-Leu^87 peptide (SEQ ID NO:4) containing a binding site for Hsp90 was immobilized onto a Sulfolink™ Coupling Gel (Pierce, Rockport, Ill.), and used to fractionate Raji cell extracts. Proteins were identified in the flow trough (FT) or eluate (E) by Western blotting with the indicated antibodies. Hsp90 and Hsp70 clearly bound the Survivin peptide including residues Ile^74-Leu^87. The anti-Hsp70 antibodies were obtained from Abcam, Cambridge, Mass. (cat. No. ab6535).

[6] = system: Hsp90; experiment: as above; type: binding; settings: eluate by Western blotting
From the text: as §1

[7] = target: T1, Hsp 27 (Homo sapiens, UniProt P04792); experiment: as above; type: binding
T1 construct: used to fractionate Raji cell extracts; endogenous in cells; host or cells: Raji B lymphoma cells
From the text: as §1

T1 sequence (P04792 whole entry): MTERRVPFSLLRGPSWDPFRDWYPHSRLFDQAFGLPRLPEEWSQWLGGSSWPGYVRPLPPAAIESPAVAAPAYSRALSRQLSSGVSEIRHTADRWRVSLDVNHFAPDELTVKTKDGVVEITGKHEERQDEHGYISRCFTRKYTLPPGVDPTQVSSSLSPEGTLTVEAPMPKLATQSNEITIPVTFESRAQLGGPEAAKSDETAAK

CSCC[C@@H](NC(=O)[C@@H](CCCCN)NC(=O)[C@@H](Cc1c[nH]c2ccccc12)NC(=O)[C@@H](CCCCN)NC(=O)[C@@H](CCCCN)NC(=O)CCCCCNC(=O)CCCC[C@@H]1SC[C@@H]2NC(=O)N[C@@H]21)C(=O)N[C@H](CCCNC(=N)N)C(=O)N[C@H](CCCNC(=N)N)C(=O)N[C@H](CC(N)=O)C(=O)N[C@H](CCC(N)=O)C(=O)N[C@H](Cc1ccccc1)C(=O)N[C@H](Cc1c[nH]c2ccccc12)C(=O)N[C@@H](C(=O)N[C@H](CCCCN)C(=O)N[C@@H](C(=O)N[C@H](CCC(N)=O)C(=O)N[C@H](CCCNC(=N)N)C(=O)N[C@H](CC(C)C)C(=O)N[C@H](Cc1ccccc1)C(=O)N[C@H](C)C(=O)N[C@H](CS)C(=O)NCC(=O)N[C@H](CO)C(=O)N[C@H](CO)C(=O)N[C@H](Cc1c[nH]cn1)C(=O)N[C@H](CCCCN)C(N)=O)C(C)C)C(C)C [P3]
viability of normal cells (trypan blue exclusion) [1]: neither the Survivin P3 nor the control P4 peptide resulted in decreased viability | intracellular accumulation in tumor cells [2]: showed intracellular fluorescence

KKWKMRRNQFWVIWQRGHSFCALKS-CONH2 ([dK][dK][dW][dK][dM][dR][dR][dN][dQ][dF][dW][dV][dI][dW][dQ][dR]G[dH][dS][dF][dC][dA][dL][dK][dS]-NH2; also: retro-inverso) [P4, retro-inverso control scrambled peptide]
cell viability (MTT) [3]: no decrease in cell viability | tumor cell viability (trypan blue exclusion) [4]: did not reduce tumor cell viability

IDDHKKHSSGCAFL [SEQ ID NO:4]
Hsp70 binding to peptide column [5]: clearly bound | Hsp90 binding to peptide column [6]: clearly bound | Hsp 27 binding to peptide column [7]: did not bind
